For 27 compounds, IC50 results are on record in US10800782B2, “Inhibitors of cellular metabolic processes” (Agios Pharmaceuticals, Inc., priority 2016, dated 2020).

The target in this assay is T1, MAT2A (Homo sapiens, UniProt P31153).
T1 construct: His6; made in house; host or cells: SF9 insect cells
T1 sequence (P31153 whole entry): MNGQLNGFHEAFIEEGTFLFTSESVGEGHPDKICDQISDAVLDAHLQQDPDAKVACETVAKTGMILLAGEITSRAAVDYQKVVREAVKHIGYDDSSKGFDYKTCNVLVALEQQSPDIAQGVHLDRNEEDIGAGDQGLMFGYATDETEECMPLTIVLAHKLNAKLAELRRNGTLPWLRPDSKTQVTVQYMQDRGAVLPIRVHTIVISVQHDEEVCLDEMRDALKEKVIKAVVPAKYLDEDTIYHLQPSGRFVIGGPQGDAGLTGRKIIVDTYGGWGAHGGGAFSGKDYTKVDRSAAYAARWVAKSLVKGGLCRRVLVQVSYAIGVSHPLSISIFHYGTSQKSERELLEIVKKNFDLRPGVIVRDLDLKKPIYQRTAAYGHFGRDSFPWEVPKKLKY
Description: MAT2A biochemical assay (colorimetric inorganic phosphate detection, PiColorLock). The settings on record: recombinant His6-tagged MAT2A 1 μg/ml; 60 minutes preincubation at 25° C.; L-Met 80 μM, ATP 100 μM; 60 minutes reaction; read at 623 nm; read-out: MAT2A Inhibition Score. The protocol: In the reaction catalyzed by MAT2A enzyme, L-Met and ATP were converted to SAM, inorganic phosphate, and inorganic diphosphate. […] The concentration of malachite green phosphomolybdate produced in the detection reaction is thus directly related to the quantity of product produced by the MAT2A enzyme. Multiple commercial kits exist for this method of phosphate detection and quantification, such as PiColorLock Gold (Innova Biosciences). Typical reaction was performed in 50 μl final volume, containing buffer (Tris, pH 8.0, 50 mM KCl, 15 mM MgCl2, 300 uM EDTA, bovine serum albumin at 0.005% w/v) and 1 μg/ml MAT2A. Compounds were added in 1 μl of DMSO at the desired concentration; a typical dose response curve contained ten points with three-fold dilution between compound concentrations. […] The reaction was allowed to proceed for 60 minutes at room temperature then halted by the addition of 13 μl of PiColor Lock reagent. After a further 5 minutes of incubation at room temperature, […] of PiColor Stabilizer was added and the reactions were further incubated at 25° C. for 25 minutes. […] Recombinant MAT2A protein was expressed in SF9 insect cells and purified by metal chelate affinity chromatography, using methods well known in the art. After expression of His6-tagged MAT2A cells were disrupted by 4 passes through an M-Yl 10 Micro fluidizer (Microfluidics) set to 500 psi, and then centrifuged at 22,000 rcf for 20 min at 4° C. The supernatant was harvested and loaded at 15 cm/h on a Histrap FF 5*1 ml column (GE) which was equilibrated with 50 mM Tris, 500 mM NaCl, pH7.4. Host cell contaminants were removed by washing the column with equilibration buffer followed by equilibration buffer containing 20 mM imidazole and 60 mM imidazole to baseline. MAT2A protein was eluted by the addition of buffer containing 250 mM imidazole, dialized into 50 mM NaCl, 50 mM Tris, pH 7.4, flash frozen in liquid nitrogen, and stored at −80° C. until use.
As to `COc1ccc(-c2c(Nc3ncns3)[nH]c3c(-c4ccccc4)c(-c4ccccc4)nn3c2=O)cc1` [Compound 147, 5-((1,2,4-thiadiazol-5-yl)amino)-6-(4-methoxyphenyl)-2,3-diphenylpyrazolo[1,5-a]pyrimidin-7(4H)-one], the IC50 was less than 100 nM.

On to `COc1ccc(-c2c(Nc3nc(OC)ns3)[nH]c3c(-c4ccccc4)c(-c4ccccc4)nn3c2=O)cc1` [Compound 148, 5-((3-methoxy-1,2,4-thiadiazol-5-yl)amino)-6-(4-methoxyphenyl)-2,3-diphenylpyrazolo[1,5-a]pyrimidin-7(4H)-one], for which the IC50 is less than 100 nM.

Regarding `COc1ccc(-c2c(Nc3nonc3N)[nH]c3c(-c4ccccc4)c(-c4ccccc4)nn3c2=O)cc1` [Compound 149, 5-((4-amino-1,2,5-oxadiazol-3-yl)amino)-6-(4-methoxyphenyl)-2,3-diphenylpyrazolo[1,5-a]pyrimidin-7(4H)-one], the IC50 is less than 100 nM.

`CCOC(=O)c1ncsc1Nc1[nH]c2c(-c3ccccc3)c(-c3ccccc3)nn2c(=O)c1-c1ccc(OC)cc1` [Compound 150, ethyl 5-((6-(4-methoxyphenyl)-7-oxo-2,3-diphenyl-4,7-dihydropyrazolo[1,5-a]pyrimidin-5-yl)amino)thiazole-4-carboxylate]: the IC50 was less than 100 nM.

Turning to `COc1ccc(-c2c(Nc3ccncn3)[nH]c3c(C4=CCCCC4)c(-c4ccccc4)nn3c2=O)cc1` [Compound 155, 3-(cyclohex-1-en-1-yl)-6-(4-methoxyphenyl)-2-phenyl-5-(pyrimidin-4-ylamino)pyrazolo[1,5-a]pyrimidin-7(4H)-one], the IC50 was less than 100 nM.

As for `COc1ccc(-c2c(Nc3ccnc(OC)n3)[nH]c3c(C4=CCCCC4)c(-c4ccccc4)nn3c2=O)cc1` [Compound 156, 3-cyclohexenyl-6-(4-methoxyphenyl)-5-(2-methoxypyrimidin-4-ylamino)-2-phenyl-pyrazolo[1,5-a]pyrimidin-7(4H)-one], the IC50 was less than 100 nM.

With `COc1ccc(-c2c(Nc3cccnn3)[nH]c3c(C4=CCCCC4)c(-c4ccccc4)nn3c2=O)cc1` [Compound 157, 3-(cyclohex-1-en-1-yl)-6-(4-methoxyphenyl)-2-phenyl-5-(pyridazin-3-ylamino)pyrazolo[1,5-a]pyrimidin-7(4H)-one], the IC50 was less than 100 nM.

On to `COc1ccc(-c2c(Nc3cnccn3)[nH]c3c(C4=CCCCC4)c(-c4ccccc4)nn3c2=O)cc1` [Compound 158, 3-cyclohexenyl-6-(4-methoxyphenyl)-2-phenyl-5-(pyrazin-2-ylamino) pyrazolo[1,5-a]pyrimidin-7(4H)-one], for which the IC50 is less than 100 nM.

For `COc1ccc(-c2c(Nc3cnc(C#N)cn3)[nH]c3c(C4=CCCCC4)c(-c4ccccc4)nn3c2=O)cc1` [Compound 159, 5-(3-cyclohexenyl-6-(4-methoxyphenyl)-7-oxo-2-phenyl-4,7-dihydropyrazolo[1,5-a]pyrimidin-5-ylamino)pyrazine-2-carbonitrile], the IC50 is less than 100 nM.

Take `COc1ccc(-c2c(Nc3cnc(N)cn3)[nH]c3c(C4=CCCCC4)c(-c4ccccc4)nn3c2=O)cc1` [Compound 160, 5-((5-aminopyrazin-2-yl)amino)-3-(cyclohex-1-en-1-yl)-6-(4-methoxyphenyl)-2-phenylpyrazolo[1,5-a]pyrimidin-7(4H)-one]: the IC50 was less than 100 nM.

As for `COc1ccc(-c2c(Nc3nccnn3)[nH]c3c(C4=CCCCC4)c(-c4ccccc4)nn3c2=O)cc1` [Compound 161, 5-((1,2,4-triazin-3-yl)amino)-3-(cyclohex-1-en-1-yl)-6-(4-methoxyphenyl)-2-phenylpyrazolo[1,5-a]pyrimidin-7(4H)-one], the IC50 was less than 100 nM.

With `COc1ccc(-c2c(Nc3cnncn3)[nH]c3c(C4=CCCCC4)c(-c4ccccc4)nn3c2=O)cc1` [Compound 162, 5-((1,2,4-triazin-5-yl)amino)-3-(cyclohex-1-en-1-yl)-6-(4-methoxyphenyl)-2-phenylpyrazolo[1,5-a]pyrimidin-7(4H)-one], the IC50 is less than 100 nM.

Regarding `COc1ccc(-c2c(Nc3ncncn3)[nH]c3c(C4=CCCCC4)c(-c4ccccc4)nn3c2=O)cc1` [Compound 163, 5-((1,3,5-triazin-2-yl)amino)-3-(cyclohex-1-en-1-yl)-6-(4-methoxyphenyl)-2-phenylpyrazolo[1,5-a]pyrimidin-7(4H)-one], the IC50 is less than 100 nM.

For `COc1ccc(-c2c(Nc3ncnc(N)n3)[nH]c3c(C4=CCCCC4)c(-c4ccccc4)nn3c2=O)cc1` [Compound 164, 5-((4-amino-1,3,5-triazin-2-yl)amino)-3-(cyclohex-1-en-1-yl)-6-(4-methoxyphenyl)-2-phenylpyrazolo[1,5-a]pyrimidin-7(4H)-one], the IC50 is less than 100 nM.

For the compound `COc1ccc(-c2c(Nc3ccon3)[nH]c3c(C4=CCCCC4)c(-c4ccccc4)nn3c2=O)cc1` [Compound 165, 3-(cyclohex-1-en-1-yl)-5-(isoxazol-3-ylamino)-6-(4-methoxyphenyl)-2-phenylpyrazolo[1,5-a]pyrimidin-7(4H)-one], the IC50 is less than 100 nM.

As for `COc1ccc(-c2c(Nc3ncns3)[nH]c3c(C4=CCCCC4)c(-c4ccccc4)nn3c2=O)cc1` [Compound 166, 5-((1,2,4-thiadiazol-5-yl)amino)-3-(cyclohex-1-en-1-yl)-6-(4-methoxyphenyl)-2-phenylpyrazolo[1,5-a]pyrimidin-7(4H)-one], the IC50 is less than 100 nM.

Turning to `COc1ccc(-c2c(Nc3nncs3)[nH]c3c(C4=CCCCC4)c(-c4ccccc4)nn3c2=O)cc1` [Compound 167, 5-((1,3,4-thiadiazol-2-yl)amino)-3-(cyclohex-1-en-1-yl)-6-(4-methoxyphenyl)-2-phenylpyrazolo[1,5-a]pyrimidin-7(4H)-one], the IC50 was less than 100 nM.

On to `O=c1c(-c2ccc3ncccc3c2)c(Nc2ccccn2)[nH]c2c(-c3ccccc3)c(-c3ccccc3)nn12` [Compound 168, 2,3-diphenyl-5-(pyridin-2-ylamino)-6-(quinolin-6-yl)pyrazolo[1,5-a]pyrimidin-7(4H)-one], for which the IC50 is less than 100 nM.

On to `O=c1c(-c2ccc3ncccc3c2)c(Nc2ccncn2)[nH]c2c(-c3ccccc3)c(-c3ccccc3)nn12` [Compound 169, 2,3-diphenyl-5-(pyrimidin-4-ylamino)-6-(quinolin-6-yl)pyrazolo[1,5-a]pyrimidin-7(4H)-one], for which the IC50 was less than 100 nM.

For the compound `O=c1c(-c2ccc3ncccc3c2)c(Nc2ccon2)[nH]c2c(-c3ccccc3)c(-c3ccccc3)nn12` [Compound 170, 5-(isoxazol-3-ylamino)-2,3-diphenyl-6-(quinolin-6-yl)pyrazolo[1,5-a]pyrimidin-7(4H)-one], the IC50 is less than 100 nM.

For the compound `CCOC(=O)c1nnc(Nc2[nH]c3c(-c4ccccc4)c(-c4ccccc4)nn3c(=O)c2-c2ccc3ncccc3c2)o1` [Compound 171, ethyl 5-((7-oxo-2,3-diphenyl-6-(quinolin-6-yl)-4,7-dihydropyrazolo[1,5-a]pyrimidin-5-yl)amino)-1,3,4-oxadiazole-2-carboxylate], the IC50 is less than 100 nM.

`CC(=O)Nc1[nH]c2c(-c3ccccc3)c(-c3ccccc3)nn2c(=O)c1-c1ccc2ncccc2c1` [Compound 172, N-(7-oxo-2,3-diphenyl-6-(quinolin-6-yl)-4,7-dihydropyrazolo[1,5-a]pyrimidin-5-yl)acetamide]: the IC50 was less than 100 nM.

`O=C(CO)Nc1[nH]c2c(-c3ccccc3)c(-c3ccccc3)nn2c(=O)c1-c1ccc2ncccc2c1` [Compound 173, 2-hydroxy-N-(7-oxo-2,3-diphenyl-6-(quinolin-6-yl)-4,7-dihydropyrazolo[1,5-a]pyrimidin-5-yl)acetamide]: the IC50 was less than 100 nM.

Consider `O=c1c(-c2ccc3ncccc3c2)c(Nc2ccccn2)[nH]c2c(C3=CCCCC3)c(-c3ccccc3)nn12` [Compound 174, 3-cyclohexenyl-2-phenyl-5-(pyridin-2-ylamino)-6-(quinolin-6-yl)pyrazolo[1,5-a]pyrimidin-7(4H)-one], for which the IC50 was less than 100 nM.

As to `O=c1c(-c2ccc3ncccc3c2)c(Nc2cnccn2)[nH]c2c(C3=CCCCC3)c(-c3ccccc3)nn12` [Compound 175, 3-cyclohexenyl-2-phenyl-5-(pyrazin-2-ylamino)-6-(quinolin-6-yl)pyrazolo[1,5-a]pyrimidin-7(4H)-one], the IC50 is less than 100 nM.

Consider `O=c1c(-c2ccc3ncccc3c2)c(Nc2ccon2)[nH]c2c(C3=CCCCC3)c(-c3ccccc3)nn12` [Compound 176, 3-cyclohexenyl-5-(isoxazol-3-ylamino)-2-phenyl-6-(quinolin-6-yl)pyrazolo[1,5-a]pyrimidin-7(4H)-one], for which the IC50 was less than 100 nM.

Take `O=c1c(-c2ccc3nccnc3c2)c(Nc2ccon2)[nH]c2c(C3=CCCCC3)c(-c3ccccc3)nn12` [Compound 177, 3-(cyclohex-1-en-1-yl)-5-(isoxazol-3-ylamino)-2-phenyl-6-(quinoxalin-6-yl)pyrazolo[1,5-a]pyrimidin-7(4H)-one]: the IC50 was less than 100 nM.
